In the supplement of paper PMC10307832:

Legend:
Assay in all cases: relative viability (nuclei count vs DMSO), 5 days (fraction); higher = more cells survive
AZ628 + Dasatinib = compound: CC1=C(C=C(C=C1)NC(=O)C2=CC(=CC=C2)C(C)(C)C#N)NC3=CC4=C(C=C3)N=CN(C4=O)C [AZ628] + Cc1nc(Nc2ncc(C(=O)Nc3c(C)cccc3Cl)s2)cc(N2CCN(CCO)CC2)n1 [Dasatinib] (partner 0.075 µM)
How it was run: (§1)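 Lung cancer cell lines in 1536-well plates were dosed by pin tool the day after seeding, either with one drug alone or with a fixed anchor-drug dose plus five library-drug doses (not always all listed) in √10 steps. After 5 days, cells were fixed and their nuclei stained in one step (final 0.05% Triton X-100, 1% formaldehyde, 1 ug/ml Hoechst), then counted on 4× images. Relative viability is the nuclei count in treated wells divided by that in vehicle wells. Values are medians of duplicate plates.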

QS11 + Phenformin = compound: C1CC2=C(C1)C=C(C=C2)OC3=NC(=C4C(=N3)N(C=N4)CC5=CC=C(C=C5)C6=CC=CC=C6)N[C@@H](CC7=CC=CC=C7)CO [QS11] + N=C(N)NC(=N)NCCc1ccccc1 [Phenformin] (partner 250 µM)
How it was run: as §1

QS11 + Decitabine = compound: C1CC2=C(C1)C=C(C=C2)OC3=NC(=C4C(=N3)N(C=N4)CC5=CC=C(C=C5)C6=CC=CC=C6)N[C@@H](CC7=CC=CC=C7)CO [QS11] + Nc1ncn([C@H]2C[C@H](O)[C@@H](CO)O2)c(=O)n1 [Decitabine] (partner 2 µM)
How it was run: as §1

[1] = compound: C[As](C)SC[C@H](NC(=O)CC[C@H](N)C(=O)O)C(=O)NCC(=O)O [Darinaparsin] + CS(=O)(=O)N1CCN(Cc2cc3nc(-c4cccc5[nH]ncc45)nc(N4CCOCC4)c3s2)CC1 [Pictilisib] (partner 1 µM)
How it was run: as §1

Darinaparsin + Lapatinib = compound: C[As](C)SC[C@H](NC(=O)CC[C@H](N)C(=O)O)C(=O)NCC(=O)O [Darinaparsin] + CS(=O)(=O)CCNCc1ccc(-c2ccc3ncnc(Nc4ccc(OCc5cccc(F)c5)c(Cl)c4)c3c2)o1 [Lapatinib] (partner 2 µM)
How it was run: as §1

## LCLC-97TM1
AZ628 + Dasatinib; first compound 0.08 µM
  relative viability: 0.769
AZ628 + Dasatinib; first compound 0.253 µM
  relative viability: 0.791
AZ628 + Dasatinib; first compound 0.8 µM
  relative viability: 0.508
AZ628 + Dasatinib; first compound 2.53 µM
  relative viability: 0.477
AZ628 + Dasatinib; first compound 8 µM
  relative viability: 0.168
QS11 + Phenformin; first compound 0.08 µM
  relative viability: 0.371
QS11 + Phenformin; first compound 0.253 µM
  relative viability: 0.431
QS11 + Phenformin; first compound 2.53 µM
  relative viability: 0.354
QS11 + Phenformin; first compound 8 µM
  relative viability: 0.294
QS11 + Decitabine; first compound 0.253 µM
  relative viability: 0.213
QS11 + Decitabine; first compound 2.53 µM
  relative viability: 0.257
QS11 + Decitabine; first compound 8 µM
  relative viability: 0.219
[1]; first compound 0.08 µM
  relative viability: 0.191
[1]; first compound 0.8 µM
  relative viability: 0.153
[1]; first compound 2.53 µM
  relative viability: 0.15
[1]; first compound 8 µM
  relative viability: 0.178
Darinaparsin + Lapatinib; first compound 0.08 µM
  relative viability: 0.782
Darinaparsin + Lapatinib; first compound 0.8 µM
  relative viability: 0.579
Darinaparsin + Lapatinib; first compound 2.53 µM
  relative viability: 0.803
Darinaparsin + Lapatinib; first compound 8 µM
  relative viability: 0.867
